Our source for the IC50, Activity and inhibition values is ChEMBL document CHEMBL4396925, “Malabaricone C as Natural Sphingomyelin Synthase Inhibitor against Diet-Induced Obesity and Its Lipid Metabolism in Mice” (ACS Med Chem Lett, 2019).

For data set [1], the target named is T1, Phosphatidylcholine:ceramide cholinephosphotransferase 1 (Homo sapiens, UniProt Q86VZ5).
T1 sequence (Q86VZ5 whole entry): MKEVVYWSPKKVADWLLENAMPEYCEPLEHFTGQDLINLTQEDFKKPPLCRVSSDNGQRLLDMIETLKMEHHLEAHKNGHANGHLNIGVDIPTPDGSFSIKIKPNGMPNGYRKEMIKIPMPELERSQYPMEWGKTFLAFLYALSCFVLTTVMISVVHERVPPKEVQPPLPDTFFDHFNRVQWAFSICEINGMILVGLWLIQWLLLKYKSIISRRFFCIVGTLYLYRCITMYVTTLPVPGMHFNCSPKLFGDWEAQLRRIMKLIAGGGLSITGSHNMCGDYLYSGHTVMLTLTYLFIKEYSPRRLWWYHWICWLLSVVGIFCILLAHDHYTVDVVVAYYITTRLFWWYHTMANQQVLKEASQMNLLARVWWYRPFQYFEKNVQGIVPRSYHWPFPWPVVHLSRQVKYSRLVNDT
As to the kind of experiment: Inhibition of SMS1 (unknown origin) stably expressed in mouse ZS cells using C6-NBD-ceramide as substrate preincubated for 30 mins followed by substrate addition and measured after 3 hrs by HPLC analysis. In kind it is cell-based.

For data set [2], the target named is T2, Phosphatidylcholine:ceramide cholinephosphotransferase 2 (Homo sapiens, UniProt Q8NHU3).
T2 sequence (Q8NHU3 whole entry): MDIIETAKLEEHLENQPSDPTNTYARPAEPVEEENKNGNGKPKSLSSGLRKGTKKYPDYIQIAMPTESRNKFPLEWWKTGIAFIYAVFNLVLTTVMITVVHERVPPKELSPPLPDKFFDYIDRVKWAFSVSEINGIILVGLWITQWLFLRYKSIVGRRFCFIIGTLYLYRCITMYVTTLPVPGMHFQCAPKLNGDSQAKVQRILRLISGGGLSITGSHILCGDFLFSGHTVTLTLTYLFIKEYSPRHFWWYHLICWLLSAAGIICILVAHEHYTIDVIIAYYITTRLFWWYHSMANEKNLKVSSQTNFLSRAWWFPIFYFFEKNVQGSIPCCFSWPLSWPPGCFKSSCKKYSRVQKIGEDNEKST
As to the kind of experiment: Inhibition of SMS2 (unknown origin) stably expressed in mouse ZS cells using C6-NBD-ceramide as substrate preincubated for 30 mins followed by substrate addition and measured after 3 hrs by HPLC analysis. In kind it is cell-based.

The target of data set [3] is T1, Phosphatidylcholine:ceramide cholinephosphotransferase 1. The data set can be described thus: Noncompetitive inhibition of SMS1 (unknown origin) stably expressed in mouse ZS cells using 5 to 50 uM C6-NBD-ceramide as substrate preincubated for 30 mins followed by substrate addition and measured after 3 hrs by HPLC analysis. In kind it is cell-based.
For data set [4], the target named is T2, Phosphatidylcholine:ceramide cholinephosphotransferase 2. As to the kind of experiment: Noncompetitive inhibition of SMS2 (unknown origin) stably expressed in mouse ZS cells using 5 to 50 uM C6-NBD-ceramide as substrate preincubated for 30 mins followed by substrate addition and measured after 3 hrs by HPLC analysis. In kind it is cell-based.
Data set [5] deals with Mus musculus. The data set can be described thus: Antiobesity activity in HFD-induced obese C57BL/6J mouse model assessed as increase in glucose tolerance administrated orally for 8 weeks and measured post treatment by OGTT assay. In kind it is functional, organism-based.
Data set [6] has as its system HepG2. As to the kind of experiment: Lipid lowering activity in human HepG2 cells assessed as reduction in oleic acid-induced lipid droplet formation by nile red staining based fluorescence microscopic method. In kind it is functional, cell-based.
Data set [7] is filed under the species Mus musculus. The data set can be described thus: Antiobesity activity in HFD-induced obese C57BL/6J mouse model assessed as decrease in body weight measured after 20 days relative to control. The arrangement: scale not given: the % may be the effect or the level left. In kind it is functional.
Data set [8] can be described thus: Toxicity in HFD-induced obese C57BL/6J mouse model assessed as induction of leaner phenotype measured over 2 months. The conditions noted are these: in vivo, 1461 h.
Data set [9] can be described thus: Toxicity in HFD-induced obese C57BL/6J mouse model assessed as effect on behavior measured over 2 months. The conditions noted are these: in vivo, 1461 h.
Data set [10] in a line: Toxicity in HFD-induced obese C57BL/6J mouse model assessed as effect on health measured over 2 months. The conditions noted are these: in vivo, 1461 h.
For a further data set, the system named is MEF. As to the kind of experiment: Cytotoxicity against MEF cells at 0.01 to 1 mM incubated for 3 hrs by CCK8 assay relative to control. The conditions noted are these: mouse, 1000 µM. In kind it is cell-based.
The subject of data set [11] is HepG2. The data set can be described thus: Lipid lowering activity in human HepG2 cells assessed as prevention in oleic acid-induced CD36/FAT activation. In kind it is functional, cell-based.
Data set [12] addresses T3, Phosphatidylcholine:ceramide cholinephosphotransferase 1 (Mus musculus, UniProt Q8VCQ6).
T3 sequence (Q8VCQ6 whole entry): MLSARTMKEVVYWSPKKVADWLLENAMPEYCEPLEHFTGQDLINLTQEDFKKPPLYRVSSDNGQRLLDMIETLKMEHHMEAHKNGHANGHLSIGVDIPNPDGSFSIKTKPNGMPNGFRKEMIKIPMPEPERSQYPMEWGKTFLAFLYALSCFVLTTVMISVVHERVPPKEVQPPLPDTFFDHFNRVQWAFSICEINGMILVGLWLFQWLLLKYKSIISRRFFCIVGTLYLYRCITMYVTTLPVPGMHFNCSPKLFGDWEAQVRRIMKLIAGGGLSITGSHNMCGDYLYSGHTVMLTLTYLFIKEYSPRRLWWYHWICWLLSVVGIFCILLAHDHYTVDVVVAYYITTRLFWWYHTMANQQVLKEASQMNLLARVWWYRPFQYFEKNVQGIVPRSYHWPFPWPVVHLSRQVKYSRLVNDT
As to the kind of experiment: Inhibition of SMS1 in MEF cells using C6-NBD-ceramide as substrate preincubated for 1 hr followed by substrate addition and measured after 1 hr by HPLC analysis. In kind it is cell-based.

In data set [13] the target is T4, Phosphatidylcholine:ceramide cholinephosphotransferase 2 (Mus musculus, UniProt Q9D4B1).
T4 sequence (Q9D4B1 whole entry): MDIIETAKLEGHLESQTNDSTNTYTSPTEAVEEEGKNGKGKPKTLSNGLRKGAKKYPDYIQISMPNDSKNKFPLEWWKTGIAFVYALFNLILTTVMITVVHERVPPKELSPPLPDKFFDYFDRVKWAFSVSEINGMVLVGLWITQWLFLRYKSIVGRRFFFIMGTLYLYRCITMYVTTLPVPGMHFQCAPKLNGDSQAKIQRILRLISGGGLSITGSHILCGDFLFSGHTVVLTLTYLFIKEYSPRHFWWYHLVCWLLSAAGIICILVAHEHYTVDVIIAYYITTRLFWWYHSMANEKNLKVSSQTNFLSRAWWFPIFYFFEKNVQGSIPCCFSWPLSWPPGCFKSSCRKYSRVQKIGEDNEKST
As to the kind of experiment: Inhibition of SMS2 in MEF cells using C6-NBD-ceramide as substrate preincubated for 1 hr followed by substrate addition and measured after 1 hr by HPLC analysis. In kind it is cell-based.

For data set [14], the system named is HepG2. As to the kind of experiment: Lipid lowering activity in human HepG2 cells assessed as reduction in oleic acid-induced intracellular TG accumulation by ELISA. In kind it is functional, cell-based.
Data set [15] concerns HepG2. As to the kind of experiment: Lipid lowering activity in human HepG2 cells assessed as change in oleic acid-induced free fatty acid level by ELISA. In kind it is functional, cell-based.
For data set [16], the species on record is Mus musculus. The data set can be described thus: Antiobesity activity in HFD-induced obese C57BL/6J mouse model assessed as decrease fat content in liver. In kind it is functional, organism-based.
The species named for data set [17] is Mus musculus. As to the kind of experiment: Antiobesity activity in HFD-induced obese C57BL/6J mouse model assessed as resistance in steatosis development in liver by oil red O-staining based histopathological analysis. In kind it is functional, organism-based.
The species entered for data set [18] is Mus musculus. As to the kind of experiment: Antiobesity activity in HFD-induced obese C57BL/6J mouse model assessed as improved lipid metabolism by oil red O-staining based histopathological analysis. In kind it is functional, organism-based.
For data set [19], the species on record is Mus musculus. As to the kind of experiment: Antiobesity activity in HFD-induced obese C57BL/6J mouse model assessed as reduction in TG level in liver by ELISA. In kind it is functional, organism-based.
The species entered for data set [20] is Mus musculus. As to the kind of experiment: Antiobesity activity in HFD-induced obese C57BL/6J mouse model assessed as reduction in TG level in plasma by ELISA. In kind it is functional, organism-based.
The species entered for data set [21] is Mus musculus. The data set can be described thus: Antiobesity activity in HFD-induced obese C57BL/6J mouse model assessed as reduction in free fatty acid level in plasma by ELISA. In kind it is functional, organism-based.
Data set [22] concerns the target T5, Phosphatidylcholine:ceramide cholinephosphotransferase 1 (Mus musculus) (UniProt Q8VCQ6).
T5 sequence (whole entry): T3 sequence (Q8VCQ6 whole entry)
As to the kind of experiment: Inhibition of SMS1 in HFD-induced obese C57BL/6J mouse liver tissue lysate using […] as substrate assessed as reduction in SM synthesis preincubated for 30 mins followed by substrate addition and measured after 3 hrs by HPLC analysis. In kind it is subcellular.

In data set [23] the target is T6, Phosphatidylcholine:ceramide cholinephosphotransferase 2 (Mus musculus) (UniProt Q9D4B1).
T6 sequence (whole entry): T4 sequence (Q9D4B1 whole entry)
As to the kind of experiment: Inhibition of SMS2 in HFD-induced obese C57BL/6J mouse liver tissue lysate using NBD-ceramide as substrate assessed as reduction in […] preincubated for 30 mins followed by substrate addition and measured after 3 hrs by HPLC analysis. In kind it is subcellular.

Data set [24] in a line: Toxicity in HFD-induced obese C57BL/6J mouse model assessed as effect in daily food intake relative to control. The conditions noted are these: in vivo.
The species named for data set [25] is Mus musculus. As to the kind of experiment: Antiobesity activity in HFD-induced obese C57BL/6J mouse model assessed as decrease in liver weight relative to control. In kind it is functional, organism-based.

The structures appear in SMILES notation. The source made the active and inactive calls. The rule behind the calls is not given here.

In the case of `O=C(CCCCCCCCc1ccc(O)cc1)c1c(O)cc(O)cc1O`, the IC50 came to 6 µM in [1] and 4.5 µM in data set [2].
As to `O=C(CCCCCCCCc1ccccc1)c1c(O)cccc1O` [MALABARICONE A], the IC50 was 4 µM in data set [1], 4 µM in [2], 2 to 3 µM in [3] and 1 to 3 µM in data set [4].
As for `O=C(CCCCCCCCc1ccc(O)cc1)c1c(O)cccc1O` [MALABARICONE B], the IC50 is 3.5 µM in data set [1], 2.5 µM in [2], 2 to 3 µM in [3] and 1 to 3 µM in [4].
As to `O=C(CCCCCCCCc1ccc(O)c(O)c1)c1c(O)cccc1O` [MALABARICONE C], the result in the data set on Mus musculus [5], in the data set listed under Mus musculus [16], in the data set filed under Mus musculus [17], in the data set listed under Mus musculus [18], in the data set filed under Mus musculus [19] and in the data set filed under Mus musculus [20] was Active. Further, the outcome in the data set listed under Mus musculus [21] and in the data set filed under Mus musculus [25] was Active. Moreover, the Activity entry with HepG2 [6] is “Dose-dependent effect”; in the data set filed under Mus musculus [7] it was 42.7%; in [8], “Toxic”; in data set [9] it was “Non-Toxic”; in [10] it was “Non-Toxic”; with MEF, 56 to 97%. For the same compound, the values for the Activity result (in the data set with HepG2 [11]; in the data set on HepG2 [14]; in [24]) were “Dose-dependent effect”, “Dose-dependent effect” and “Non-Toxic”, respectively. The IC50 in [1] is 3 µM; in [2], 1.5 µM; in data set [3] it was 2 to 3 µM; in [4], 1 to 3 µM; in data set [12], 13 µM; in data set [13], 11 µM. Besides, in the data set on HepG2 [15], the outcome was inactive. The inhibition entry in [22] and in [23] was “Active” in each case.
